Each structure is given as a SMILES string.

For this assay, the target named is Human immunodeficiency virus type 1 integrase (Human immunodeficiency virus 1, UniProt Q7ZJM1). The assay is described as follows: Inhibition of HIV1 integrase strand transfer activity.
Chain of Human immunodeficiency virus type 1 integrase (Q7ZJM1 whole entry): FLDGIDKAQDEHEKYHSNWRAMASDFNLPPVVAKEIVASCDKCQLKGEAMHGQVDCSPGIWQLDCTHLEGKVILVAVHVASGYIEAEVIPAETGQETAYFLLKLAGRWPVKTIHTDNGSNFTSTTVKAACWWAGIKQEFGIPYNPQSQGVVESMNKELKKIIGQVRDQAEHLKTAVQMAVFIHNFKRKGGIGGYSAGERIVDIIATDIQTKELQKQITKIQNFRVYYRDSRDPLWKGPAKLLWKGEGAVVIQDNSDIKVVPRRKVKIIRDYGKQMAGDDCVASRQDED
Broadly, the IC50 is the concentration that gives 50% inhibition. High values mean lower potency, low ones higher potency. On to `O=C(Nc1cccc2ccccc12)c1nc(-c2cccs2)nc(O)c1O`, for which the IC50 was 214 nM. In the case of `O=C(N[C@@H]1CCc2ccccc21)c1nc(-c2cccs2)nc(O)c1O` it was 20 nM.

Compound `O=C(NCc1ccccc1F)c1nc(-c2cccs2)nc(O)c1O` had an IC50 of 162 nM. In the case of `O=C(NCc1csc2ccccc12)c1nc(-c2cccs2)nc(O)c1O` it was 50.1 nM; in that of `O=C(NCc1cc2ccccc2s1)c1nc(-c2cccs2)nc(O)c1O`, 10 nM; in that of `O=C(NCc1cncs1)c1nc(-c2cccs2)nc(O)c1O`, 2510 nM. In the case of `O=C(NCn1ccnc1)c1nc(-c2cccs2)nc(O)c1O` it was 17000 nM; in that of `O=C(Nc1ccc2ccccc2c1)c1nc(-c2cccs2)nc(O)c1O`, 30.2 nM; in that of `O=C(N[C@H]1CCc2ccccc21)c1nc(-c2cccs2)nc(O)c1O`, 617 nM. In the case of `O=C(NCc1cccs1)c1nc(-c2cccs2)nc(O)c1O` it was 100 nM; in that of `O=C(NCc1nccs1)c1nc(-c2cccs2)nc(O)c1O`, 200 nM; in that of `O=C(NCn1cncn1)c1nc(-c2cccs2)nc(O)c1O`, 50100 nM. The compound `COc1ccccc1CNC(=O)c1nc(-c2cccs2)nc(O)c1O` had an IC50 of 91.2 nM. For `O=C(NCC1CCCCC1)c1nc(-c2cccs2)nc(O)c1O` the value was 10 nM.

These data come from ChEMBL document CHEMBL1153757, “Multivariate QSAR study of 4,5-dihydroxypyrimidine carboxamides as HIV-1 integrase inhibitors” (Eur J Med Chem, 2009).
